The values below come from patent publication US7888042B2, “Methods for identifying insulin mimetics” (Ohio University, priority 2005, dated 2011).

The experiment concerns the target T1, pure recombinant glycosylated IR (Homo sapiens, UniProt P06213).
T1 construct: purchased R&D Systems, Inc
The experiment is described as follows: Surface plasmon resonance binding to IR. The settings on record: SPR, IR bound to NTA chip; read-out: apparent binding affinity (Kd) to IR. As to the method: (A) α-PGG binds to IR as measured by a SPR (28). Increasing concentrations of α-PGG was injected into the system to interact with the pure IR attached to the gold surface of the biosensor chip. The binding, represented in arbitrary response units, was automatically plotted against α-PGG concentrations to generate the binding curve. (B) Insulin binding to IR in the absence or presence of α-PGG. Increasing amounts of ^125I-labeled insulin were added to WGA-coated wells containing pre-bound IR isolated from CHO-IR cells in the absence of α-PGG or in the presence of 30 μM or 50 μM of α-PGG. After overnight incubation, removal of excessive ligands, and washing, the bound radioactive insulin was measured. (C) Insulin displacement by α-PGG. Fixed amounts of radioactive insulin (1 nM) were added to each of the WGA-coated wells pre-bound with IR. Increasing amounts of α-PGG were added to the wells to displace the ^125I-labeled insulin. […]
Insulin receptor binding studies. […] After sensograms of α-PGG-IR binding at different concentrations were recorded, the binding affinity was analyzed using BIAevaluation software. […] The bound ligand was detached (eluted) from the receptor with 2×200 μL 0.2M Glycine pH 2.8, and measured for its radioactivity using a Beckman Coulter LS 6400 Multi-Purpose Scintillation Counter. […] The receptor binding results were analyzed with the software GraphPad Prism.

Values joined by “and” are separate entries in the source; they are usually repeats but may differ in a detail not shown here. Equal entries are not always repeated.

T1 sequence (P06213 28-746 isoform P06213-2 limits assumed): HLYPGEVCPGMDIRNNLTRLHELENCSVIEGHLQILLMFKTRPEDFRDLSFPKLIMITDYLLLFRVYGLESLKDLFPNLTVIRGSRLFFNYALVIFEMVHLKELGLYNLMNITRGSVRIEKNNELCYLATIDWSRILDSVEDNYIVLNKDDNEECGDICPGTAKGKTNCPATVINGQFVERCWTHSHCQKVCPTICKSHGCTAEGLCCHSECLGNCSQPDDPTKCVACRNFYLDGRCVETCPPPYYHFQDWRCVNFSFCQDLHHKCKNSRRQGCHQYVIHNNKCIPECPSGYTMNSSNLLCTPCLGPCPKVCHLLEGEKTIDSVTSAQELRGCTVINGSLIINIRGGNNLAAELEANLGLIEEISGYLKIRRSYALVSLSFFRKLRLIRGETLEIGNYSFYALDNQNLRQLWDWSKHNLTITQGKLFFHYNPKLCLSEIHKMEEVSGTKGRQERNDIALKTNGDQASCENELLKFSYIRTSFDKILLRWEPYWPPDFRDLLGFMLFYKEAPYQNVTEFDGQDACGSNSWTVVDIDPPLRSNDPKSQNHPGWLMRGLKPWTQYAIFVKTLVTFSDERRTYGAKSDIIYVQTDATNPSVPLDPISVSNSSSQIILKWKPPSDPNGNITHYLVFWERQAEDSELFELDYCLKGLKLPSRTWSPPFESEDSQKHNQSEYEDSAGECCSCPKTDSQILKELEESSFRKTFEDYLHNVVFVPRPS
T1 sequence (P06213 763-956 limits assumed): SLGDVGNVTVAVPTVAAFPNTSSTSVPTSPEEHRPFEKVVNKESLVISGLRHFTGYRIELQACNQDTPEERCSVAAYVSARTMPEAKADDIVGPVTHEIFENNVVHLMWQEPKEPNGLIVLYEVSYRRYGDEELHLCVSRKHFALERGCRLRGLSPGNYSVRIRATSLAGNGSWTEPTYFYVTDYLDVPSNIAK

For `O=C(OC[C@H]1O[C@H](OC(=O)c2cc(O)c(O)c(O)c2)[C@H](OC(=O)c2cc(O)c(O)c(O)c2)[C@@H](OC(=O)c2cc(O)c(O)c(O)c2)[C@@H]1OC(=O)c1cc(O)c(O)c(O)c1)c1cc(O)c(O)c(O)c1` [α-PGG, alpha 1,2,3,4,6-penta-O-galloyl-D-Glucopyranose], the Kd was 43 µM and ~43 µM.
